Each block holds one molecule with its values, some of them ahead of it. Where no end group is shown, it is not given here. The star is where a group is joined. Biotin = O=C1N[C@H]2[C@H](CS[C@H]2CCCCC(=O)*)N1
Key:
[1] = Peptide-mediated adhesion of streptavidin-coated gold particles on enamel, SEM; format: binding, bovine; settings: 20 μM peptide, then 50 nm streptavidin gold nanoparticles; SEM at 10000X
Method: Bovine enamel incisors were obtained from SE Dental (Baton Rouge, La.). Teeth are sectioned and cut into enamel slabs approx. 5 mm on each side using a DREMEL® saw with a diamond blade. The enamel blocks are cleaned and place each in a plastic microcentrifuge tube.
Each enamel block was incubated for 45 min in phosphate buffered saline with 0.1% TWEEN® 20 (PBST) and 1 mg/mL bovine serum albumin (BSA) at room temperature (22° C.). All blocks were rinsed with PBST twice while vortexing in the microcentrifuge tube. The peptides were first diluted to 10 mM in water and then a working concentration of 20 μM was prepared in PBST with 1 mg/mL BSA. Each sample was exposed to the peptide solution or a no peptide buffer control for 30 min at room temperature. The samples were slowly rotated during incubation. The enamel blocks were removed from the peptide solution and washed four times with PBST with vortexing.
50 nm gold nanoparticles functionalized with streptavidin were obtained from Nanocs Inc (New York, N.Y.) and diluted to 0.006% wt in PBST with 1 mg/mL BSA. All enamel samples were then exposed to the gold nanoparticle solution for 1 hr at room temperature with slow rotation. […]
Each enamel sample was examined with Electron Microscopy. […] Particles were counted per micrograph and the density of particle coverage was compared (Table 14).

[2] = Phage ELISA, bovine polished enamel-binding assay; settings: over 10^10 pfu phage, A450
Method: A total of 11 selected phage candidates (Example 3) was used in a phage ELISA experiment. Purified phage lysates were used for binding to the enamel blocks using an anti-M13 phage antibody conjugated to horseradish-peroxidase, followed by the addition of chromogenic agent TMB. The plates were read at A450 nm.
For each phage candidate to be tested, the polished and unpolished enamel blocks were incubated for 1 h at room temperature with 200 μL of blocking buffer, consisting of 2% non-fat dry milk (Schleicher & Schuell, Inc.) in TBS. […] The tube was rinsed 6 times with wash buffer consisting of TBST-0.05%. The wells were filled with 200 μL of TBST-0.5% containing 1 mg/mL BSA and then 10 μL (over 10^10 pfu) of purified phage stock was added. The samples were incubated at room temperature for 60 min with slow shaking. The non-binding phage was removed by washing 6 times with TBST-0.5%. […] The conjugate solution was removed and was washed 6 times with TBST-0.5%. […] BoEn P means bovine polished enamel and BoEn means bovine enamel.

[3] = tested on: pellicle coated enamel substrates; settings: 20 μM biotinylated peptide, streptavidin-HRP, normalized to DenP03, three replicates
Method: A total of 20 synthetic peptides were manufactured using sequences obtained from Table 6. Peptides were obtained from SynBioSci Corp. (Livermore, Calif.) and included an additional sequence (SSRP; SEQ ID NO: 118) at the N-terminus and biotin labeled lysine at the C-terminus.
Enamel substrates were cut into approximately 7 mm squares and mounted on wax mounting for incubation in the mouth for 30 min to form a pellicle coated surface. The pellicle coated enamel substrates were removed from the wax backing and placed in well plates with the pellicle surface exposed as in Example 5. Each pellicle coated substrate was incubated for 1 h at room temperature (˜22° C.) with 1 mL of blocking buffer, consisting of 1 mg/mL BSA in PBST (Pierce BUPH™ #28372 with 0.1% TWEEN® 20). The blocking buffer was removed by aspirating the liquid out of each well. The tube was rinsed 2 times with wash buffer consisting of PBST. The wells were filled with 500 μL of 20 μM peptide solution which was prepared by diluting in blocking buffer. The samples were incubated for 30 min with slow shaking at 37° C. The non-binding peptide was removed by washing 6 times with PBST. Then, 500 μL of horseradish peroxidase/streptavidin conjugate (Pierce #22127), diluted 1:2000 in PBST, was added and incubated for 1 h at room temperature (˜22° C.). The conjugate solution was removed and was washed 4 times with PBST.
Each enamel substrate was removed from the well and washed again in a 15-mL test tube with 10 mL of PBST. Each enamel substrate was then mounted in a clean well plate with only the enamel surface exposed. A 1:1 solution of TMB substrate and H2O2 (200 μL) was added to each well and the color was allowed to develop for between 10 to 20 min, typically for 15 min, at room temperature (˜22° C.). Then, 100 μL of solution from each well was transferred to a 96 well reading plate containing stop solution (100 μL of 2 M H2SO4) in each well. The A450 was measured using a microplate spectrophotometer (Molecular Devices, Sunnyvale, Calif.). […] Each sequence was tested with three replicate enamel coated pellicle substrates.

Pellicle Surface = settings: read-out: MB50; biotinylated peptide, 30 min in vivo pellicle on enamel, from Scatchard plots
Method: The pellicle coated enamel substrates were removed from the wax backing and placed in well plates with the pellicle surface exposed as in Example 5. […] The blocking buffer was removed by aspirating the liquid out of each well. […] The samples were incubated for 30 min with slow shaking at 37° C. The non-binding peptide was removed by washing 6 times with PBST. […] The conjugate solution was removed and was washed 4 times with PBST.
Each enamel substrate was removed from the well and washed again in a 15-mL test tube with 10 mL of PBST. Each enamel substrate was then mounted in a clean well plate with only the enamel surface exposed.

[4] = tested on: pellicle-coated enamel substrates; assay: Tooth whitening with sequentially applied peptide and silica-coated TiO2, colour measurement; set-up: species or system bovine; settings: 20 μM peptide 30 min, then 1% silica-coated TiO2 30 min; three replicate teeth
Method: Silica-coated rutile titanium dioxide (Luce II WW) was obtained from US Cosmetics Corp. (Dayville, Conn.). A 12 wt % solution of the pigment was prepared with Millipore water. The solution was dispersed by horn sonication using a Branson Sonifier 150 at 10 W. The solution was sonicated in an ice bath for 6 min total, with 2 min sonication intervals. A working solution of 1 wt % in 10 mM sodium phosphate buffer at pH7.2 was made for application to peptide coated enamel. A 0.01% solution of this dispersion diluted in the same buffer was measured on a Malvern Zetasizer Nano dynamic light scattering instrument.
Bovine enamel incisors were obtained from SE Dental (Baton Rouge, La.). Teeth were sectioned and cut into enamel slabs approx. 7 mm on each side using a DREMEL® saw with a diamond blade. The enamel slabs were cleaned and lightly polished to remove surface debris. The enamel was pretreated with a mixture of coffee and tea in order to stain to a color similar to human stained teeth. Each enamel block was then mounted on wax mounting and sterilized with ethylene oxide. […] The mounted enamel blocks were brushed with a toothbrush and a 1:2 dilution of COLGATE® MAXFRESH® toothpaste (Colgate-Palmolive Co., New York, N.Y.) and then reinserted into the mouth for 1 minute. […] Each pellicle coated enamel slab was measured for color using a Konica-Minolta 2600d integrating sphere spectrophotometer.
Peptides listed in Table 15 were dissolved into pH 7.2 PBS buffer at a concentration of 20 μM. Three replicate teeth were used for each experimental condition. Each tooth was incubated with peptide solution for 30 min or buffer alone as a control. The enamel blocks were removed from the peptide solution and rinsed with PBS buffer. The enamel blocks were then incubated in the 1% solution of silica-coated TiO2 for 30 min. The enamel blocks were removed, rinsed with 10 mM phosphate buffer and blotted dry. Each substrate was measured for color (L, a*, b*, C*, h) values. The total color difference, Delta E*ab and the Metric Hue Difference, Delta H*ab, for the whitening process were calculated using equations (1) and (2) below: Delta E*ab=((L*1−L*2)^2+(a*1−a*2)^2+(b*1−b*2)^2)^1/2 (1) Delta H*ab=(2(C*1C*2−a*1a*2−b*1b*2))^1/2 (2) where L*=the lightness variable, a* and b* are the chromaticity coordinates and C* is the chroma of CIELAB colorspace as defined by the International Commission of Illumination (CIE) and described in ASTM D2244-09b and subscript 1 denotes the initial color value and subscript 2 denotes the final color value.

[5] = Peptide-mediated deposition of Co-NTA beads on bovine enamel, SEM; format: binding; settings: 20 μM peptide, then Co-NTA TALON beads; SEM at 5000X
From the text: Bovine enamel incisors were obtained from SE Dental (Baton Rouge, La.). Teeth were sectioned and cut into enamel slabs approx. 5 mm on each side using a DREMEL® rotary (Robert Bosch LLC, Farmington Hills, Mich.) saw with a diamond blade. The enamel slabs were cleaned and embedded in a well plate contained molding material so as to only expose the enamel surface in the well.
Polystyrene beads with cobalt-NTA coating (DYNABEADS® TALON®) were obtained from Invitrogen (item#101.02D) as a slurry of 40 mg/mL. The slurry (50 μL; 2 mg beads) was resuspended and washed with 700 μL of binding buffer (50 mM sodium phosphate, pH 8.0, 300 mM NaCI, 0.01% TWEEN® 20) in preparation for His6 binding.
Peptides were dissolved in phosphate buffered saline (Pierce, pH 7.2) at a concentration of 20 μM. Peptide solution (500 μL) was placed in each well containing an enamel slab. Enamel slabs exposed to only PBS in this step were used as a control. Samples were incubated with peptide solution with gentle agitation for 30 min. The peptide solution and PBS were removed from the well plate and each well was rinsed 3 times with repeated additions of PBS. TALON® beads (50 μL) were added to each well and incubated with gentle agitation for 30 min. The TALON® solution was removed and the samples were washed three times with the same binding buffer.
Each enamel sample was removed from the well plate and rinsed again with buffer. […] The enamel slabs were further examined by Electron Microscopy (Hitachi TM-1000 Tabletop SEM Microscope) at 1000×, 2500× and 5000× magnification. […] Little to no beads were found on the no peptide control. […]

Molecule: TTYHYKNIYQESYQQRNPAVHHHHHH [DenP03-D]
Particles per μm^2 at 10000X [1]: 0.23 Particles per μm^2

O.D.450 [2]: 0.641
Molecule: EPPTRTRVNNHTVTVQAQQH (Synthetic oral-surface binding peptide) [BoEn P2]

O.D.450 [2]: 0.797
Molecule: NFCETQLDLSVCTV (Synthetic oral-surface binding peptide) [BoEn P5]

Molecule: SSRPTTYHYKNIYQESYQQRNPAVK(Biotin) [DenP3-A]
O.D.450 (normalized) [3]: 1.000 | EC50 (Pellicle Surface): 28 µM

O.D.450 [2]: 0.83
Molecule: NTCQPTKNATPCSA (Synthetic oral-surface binding peptide) [BoEn P6]

O.D.450 [2]: 2.02
Molecule: THNMSHFPPSGHPKRTAT (Synthetic oral-surface binding peptide) [BoEn P8]

O.D.450 [2]: 0.665
Molecule: GYCLRGDEPAVCSG (Synthetic oral-surface binding peptide) [BoEn P3]

Molecule: SSRPHKNENIMQYNVNDRWHITPAK(Biotin) [DenP32-A]
O.D.450 (normalized) [3]: 1.135 | EC50 (Pellicle Surface): 25 µM

Molecule: TTYHYKNIYQESYQQRNPAVK(Biotin) [DenP03-C]
Particles per μm^2 at 10000X [1]: 1.75 Particles per μm^2

B1: PSSSRPTTYHYKNIYQESYQQRNPAVGPEEAAKKEEAAKKPASSRPTTYHYKNIYQESYQQRNPAVGPHHHHHH (peptide)
chain: PSSSRPTTYHYKNIYQESYQQRNPAVGPEEAAKKEEAAKKPASSRPTTYHYKNIYQESYQQRNPAVGPHHHHHH
Delta E*ab Avg [4]: 6.78 | Delta H*ab Avg [4]: 1.60

B2: PSSRPTTYHYKNIYQESYQQRNPAVGPEEAAKKEEAAKKPASSRPTTYHYKNIYQESYQQRNPAVGSSGPGSSKQPNKQPNKQPNKQPNKQPNKQPNKQPNKQPNKQPNGPHHHHHH (peptide)
chain: PSSRPTTYHYKNIYQESYQQRNPAVGPEEAAKKEEAAKKPASSRPTTYHYKNIYQESYQQRNPAVGSSGPGSSKQPNKQPNKQPNKQPNKQPNKQPNKQPNKQPNKQPNGPHHHHHH
Delta E*ab Avg [4]: 10.70 | Delta H*ab Avg [4]: 2.93

B3: PGSGGGGSPYSETPNDQKPNPHYKVSGTKGGGYSETPNDQKPNPHYKVSGTKGGGYSETPNDQKPNPHYKVSGTKGPGGHHHHHH (peptide)
chain: PGSGGGGSPYSETPNDQKPNPHYKVSGTKGGGYSETPNDQKPNPHYKVSGTKGGGYSETPNDQKPNPHYKVSGTKGPGGHHHHHH
modifications: Synthetic peptide composition
Particles per um^2 at 5000X [5]: 0.44 Particles per um^2
